# “Also recorded” adds a separate entry of the source.
# Experiments:
# [1] = target: FGFR1 (Homo sapiens, UniProt P11362); test: Inhibition of receptor tyrosine kinase activity at molecular level (ELISA, Poly(Glu,Tyr)4:1 substrate phosphorylation); format: biochemical; conditions: 10 nM compound; average of two independent experiments
# [2] = target: KDR (Homo sapiens, UniProt P35968); test: as above; format: biochemical; conditions: 10 nM compound; average of two independent experiments
# [3] = target: RET (Homo sapiens, UniProt P07949); test: as above; format: biochemical
# How it was run: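 Poly(Glu,Tyr)4:1-coated plates (20 μg/mL) were incubated with recombinant kinase, compound and 5 μM ATP (final) in HEPES pH 7.4 buffer with MgCl2/MnCl2/Na3VO4/DTT for 1 h at 37 °C. Phosphotyrosine was detected with PY99 and HRP anti-mouse IgG plus OPD at 490 nm. IC50 came from four-parameter regression.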
# [4] = target: T1, Ret (V804M) (Homo sapiens, UniProt P07949, V804M); test: Inhibition of RET-related mutant enzyme activity (ELISA); format: biochemical; conditions: measured twice, Mean ± SD
# T1 construct: purchased
# Experimental: Enzyme reaction substrate Poly(Glu, Tyr)4:1 was diluted with potassium-free PBS (10 mM sodium phosphate buffer, 150 mM NaCl, pH 7.2-7.4) to 20 μg/mL. The enzyme label plate was coated with 125 μL/well. The reaction was conducted under 37° C. for 12-16 hours. After the liquid was removed from the wells, the plate was washed three times with 200 μL/well of T-PBS (PBS containing 0.1% Tween-20), each for 5 minutes. The enzyme plate was dried in 37° C. dryer for 1-2 hours.
# 50 μL ATP solution diluted with buffer (50 mM HEPES pH 7.4, 50 mM MgCl2, 0.5 mM MnCl2, 0.2 mM Na3VO4, 1 mM DTT) to a final concentration of 5 μM was added into each well. The compound was diluted with DMSO to a suitable concentration (1 μL/well) or the well contained the corresponding concentration of DMSO (negative control well) Then various kinase recombinant proteins diluted with 49 μL of reaction buffer was added to initiate the reaction. Each experiment required duplicate enzyme-free control well. The reaction was carried out for 1 hour on a 37° C. Shaker (100 rpm). […] The reaction was quenched with 2M H2SO4 (50 μL/well), and read at 490 nm using a tunable microplate reader SPECTRA MAX 190.
# The inhibition ratio of the sample was determined by the following formula: […]
# The IC50 values were obtained via four-parameter regression analysis using the software supplied with the microplate reader. […]
# [5] = tested on: human gastric cancer SNU-16 xenografts; test: Growth of subcutaneous xenografts of human gastric cancer SNU-16 in nude mice (HuFGFR267 study); format: in vivo; conditions: for relative tumor proliferation rate T/C: day 21; for Weight (g, mean ± SD): SNU-16 tumor-bearing mice
# Experimental: The diameter of the subcutaneously implanted tumor in nude mice was measured by a vernier caliper. […] In the compound HuFGFR267 50 mg/kg group, the compound was formulated with 0.5% methylcellulose (MC) to the required concentration before use. […] The positive control drug AZD4547 was diluted to the required concentration with water for injection containing 1% Tween 80 before use. […] In the solvent control group, an equal amount of water for injection was administrated.
# [6] = tested on: human lung cancer NCI-H1581 xenografts; test: Growth of subcutaneous xenografts of human lung cancer NCI-H1581 in nude mice; format: in vivo; conditions: for Relative tumor volume RTV (mean ± SD): NCI-H1581, 50 mg/kg orally once a day; for Weight (g, mean ± SD): NCI-H1581 tumor-bearing mice, 50 mg/kg orally once a day
# Experimental: The diameter of the subcutaneously implanted tumor in nude mice was measured by a vernier caliper. […] In the compound HuFGFR267 50 mg/kg group, the compound was formulated with 0.5% methylcellulose (MC) to the required concentration before use. The formulation of compound was prepared once a week, and orally administered once a day for 14 days. The positive control drug AZD4547 was diluted to the required concentration with water for injection containing 1% Tween 80 before use. The formulation of AZD4547 was prepared once a week, and orally administered once a day for 14 days. In the solvent control group, an equal amount of water for injection was administrated.
# Sequence of RET (P07949 29-1114): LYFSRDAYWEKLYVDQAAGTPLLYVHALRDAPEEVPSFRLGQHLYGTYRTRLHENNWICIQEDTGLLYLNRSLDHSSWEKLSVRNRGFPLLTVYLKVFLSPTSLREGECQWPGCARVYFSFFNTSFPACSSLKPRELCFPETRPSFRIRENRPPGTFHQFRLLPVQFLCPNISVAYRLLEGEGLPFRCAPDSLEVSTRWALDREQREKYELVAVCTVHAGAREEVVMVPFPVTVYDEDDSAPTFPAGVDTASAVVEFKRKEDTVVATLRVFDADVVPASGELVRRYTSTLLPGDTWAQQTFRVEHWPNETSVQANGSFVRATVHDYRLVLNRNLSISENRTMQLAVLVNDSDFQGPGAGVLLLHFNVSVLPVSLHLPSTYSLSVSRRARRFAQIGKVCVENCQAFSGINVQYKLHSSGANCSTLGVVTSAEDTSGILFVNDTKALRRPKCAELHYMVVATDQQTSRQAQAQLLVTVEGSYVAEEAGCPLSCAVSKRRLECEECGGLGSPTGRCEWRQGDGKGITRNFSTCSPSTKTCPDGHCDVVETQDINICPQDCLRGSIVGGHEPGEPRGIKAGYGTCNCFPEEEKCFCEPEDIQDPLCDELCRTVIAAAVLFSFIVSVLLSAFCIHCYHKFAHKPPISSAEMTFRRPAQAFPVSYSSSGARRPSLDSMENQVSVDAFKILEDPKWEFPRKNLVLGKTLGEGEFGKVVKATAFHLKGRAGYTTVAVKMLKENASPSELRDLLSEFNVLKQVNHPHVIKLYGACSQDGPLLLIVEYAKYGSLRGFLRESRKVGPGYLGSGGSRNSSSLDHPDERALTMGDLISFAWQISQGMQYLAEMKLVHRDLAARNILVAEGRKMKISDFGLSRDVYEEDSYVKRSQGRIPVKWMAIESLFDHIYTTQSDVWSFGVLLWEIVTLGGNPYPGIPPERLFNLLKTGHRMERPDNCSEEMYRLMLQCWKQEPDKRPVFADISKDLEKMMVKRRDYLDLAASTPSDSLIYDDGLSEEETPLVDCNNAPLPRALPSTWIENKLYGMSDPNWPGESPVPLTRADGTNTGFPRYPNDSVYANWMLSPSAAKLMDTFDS
# Sequence of KDR (P35968 20-1356): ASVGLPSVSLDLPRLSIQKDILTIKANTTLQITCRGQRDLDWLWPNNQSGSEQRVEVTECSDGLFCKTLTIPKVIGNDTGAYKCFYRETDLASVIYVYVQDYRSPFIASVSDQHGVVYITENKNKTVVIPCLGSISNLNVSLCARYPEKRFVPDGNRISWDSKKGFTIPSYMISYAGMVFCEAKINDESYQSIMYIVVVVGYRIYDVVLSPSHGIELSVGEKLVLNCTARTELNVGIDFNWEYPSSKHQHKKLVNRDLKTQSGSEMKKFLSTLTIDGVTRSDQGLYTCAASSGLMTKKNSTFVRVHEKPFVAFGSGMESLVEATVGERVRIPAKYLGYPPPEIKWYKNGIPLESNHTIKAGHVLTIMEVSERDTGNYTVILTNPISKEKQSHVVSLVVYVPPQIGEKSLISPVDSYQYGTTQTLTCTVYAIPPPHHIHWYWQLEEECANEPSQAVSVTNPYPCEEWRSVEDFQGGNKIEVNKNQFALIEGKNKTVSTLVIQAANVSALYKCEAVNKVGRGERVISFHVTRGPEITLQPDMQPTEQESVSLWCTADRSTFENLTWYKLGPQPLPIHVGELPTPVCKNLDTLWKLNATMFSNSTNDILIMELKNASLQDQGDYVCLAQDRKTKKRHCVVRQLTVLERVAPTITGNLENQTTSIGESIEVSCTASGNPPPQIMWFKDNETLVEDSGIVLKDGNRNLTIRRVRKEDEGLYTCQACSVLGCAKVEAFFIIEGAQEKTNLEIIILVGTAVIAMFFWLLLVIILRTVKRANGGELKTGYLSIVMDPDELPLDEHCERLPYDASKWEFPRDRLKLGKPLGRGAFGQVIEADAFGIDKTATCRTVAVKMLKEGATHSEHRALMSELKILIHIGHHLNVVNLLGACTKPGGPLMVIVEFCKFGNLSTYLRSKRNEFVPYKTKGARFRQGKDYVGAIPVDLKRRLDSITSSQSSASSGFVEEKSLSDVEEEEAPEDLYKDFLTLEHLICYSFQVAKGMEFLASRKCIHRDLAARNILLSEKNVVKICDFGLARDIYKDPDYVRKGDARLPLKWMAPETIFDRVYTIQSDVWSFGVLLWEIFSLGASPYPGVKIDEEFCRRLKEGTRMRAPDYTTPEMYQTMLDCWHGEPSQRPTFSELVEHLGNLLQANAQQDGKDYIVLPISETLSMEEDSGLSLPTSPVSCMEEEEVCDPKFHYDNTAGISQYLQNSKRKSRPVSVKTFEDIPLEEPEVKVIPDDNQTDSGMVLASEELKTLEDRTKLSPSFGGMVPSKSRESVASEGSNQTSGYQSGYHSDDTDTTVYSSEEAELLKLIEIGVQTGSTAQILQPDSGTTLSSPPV
# Sequence of FGFR1 (P11362 22-822): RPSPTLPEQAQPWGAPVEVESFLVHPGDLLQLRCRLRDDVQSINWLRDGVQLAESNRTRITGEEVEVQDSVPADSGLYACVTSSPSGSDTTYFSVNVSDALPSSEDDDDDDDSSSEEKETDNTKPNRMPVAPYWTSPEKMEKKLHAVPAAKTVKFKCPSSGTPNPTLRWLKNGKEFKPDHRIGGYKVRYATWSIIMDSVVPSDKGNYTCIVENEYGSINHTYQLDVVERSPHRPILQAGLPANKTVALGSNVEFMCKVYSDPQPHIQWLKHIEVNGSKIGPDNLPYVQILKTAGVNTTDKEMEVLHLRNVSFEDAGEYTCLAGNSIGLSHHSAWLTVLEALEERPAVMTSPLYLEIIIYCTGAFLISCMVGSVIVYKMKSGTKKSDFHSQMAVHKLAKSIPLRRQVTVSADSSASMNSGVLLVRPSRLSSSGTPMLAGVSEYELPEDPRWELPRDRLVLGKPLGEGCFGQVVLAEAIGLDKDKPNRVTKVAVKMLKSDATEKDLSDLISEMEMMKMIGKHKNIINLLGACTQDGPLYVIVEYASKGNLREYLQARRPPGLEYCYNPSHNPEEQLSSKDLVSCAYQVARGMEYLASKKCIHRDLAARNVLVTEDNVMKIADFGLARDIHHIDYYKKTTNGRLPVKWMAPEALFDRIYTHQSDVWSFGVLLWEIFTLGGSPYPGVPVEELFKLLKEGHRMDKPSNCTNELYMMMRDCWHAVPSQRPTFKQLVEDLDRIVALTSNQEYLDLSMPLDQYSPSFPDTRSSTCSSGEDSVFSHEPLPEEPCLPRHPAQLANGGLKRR
# T1 sequence (P07949 29-1114 V804M): as the sequence (P07949 29-1114) above, with V776M counted along it
smiles,measurement,setting,value
"CN1CCN(Cc2ccc(NC(=O)c3ccc(Cl)c(C#Cc4cccnc4N)c3)cc2C(F)(F)F)CC1 [Example 1, 3-(2-aminopyridine-3-ethynyl)-4-chloro-N-(4-((4-methylpiperazin-1-yl)methylene)-3-(trifluoromethyl)phenyl)benzamide]",10 nM inhibition ratio FGFR1,[1],77.7
same,10 nM inhibition ratio KDR,[2],45.1
same,10 nM inhibition ratio RET,"[3]; 10 nM compound, average of two independent experiments",87.6
same,IC50,"[3]; measured twice, Mean ± SD",1.4 ± 0.6 nM
same,IC50,[4],8.4 ± 1.7 nM
same,relative tumor proliferation rate T/C,"[5]; SNU-16, 25 mg/kg orally once a day for 21 days",18.55%
same,Relative tumor volume RTV (mean ± SD),"[5]; SNU-16, 25 mg/kg orally once a day, d0",1.00 ± 0.00
same,Relative tumor volume RTV (mean ± SD),"[5]; SNU-16, 25 mg/kg orally once a day, d3",1.74 ± 0.58
same,Relative tumor volume RTV (mean ± SD),"[5]; SNU-16, 25 mg/kg orally once a day, d7",2.51 ± 0.93
same,Relative tumor volume RTV (mean ± SD),"[5]; SNU-16, 25 mg/kg orally once a day, d10",3.13 ± 1.51
same,Relative tumor volume RTV (mean ± SD),"[5]; SNU-16, 25 mg/kg orally once a day, d14",3.79 ± 1.93
same,Relative tumor volume RTV (mean ± SD),"[5]; SNU-16, 25 mg/kg orally once a day, d17",3.97 ± 1.58
same,Relative tumor volume RTV (mean ± SD),"[5]; SNU-16, 25 mg/kg orally once a day, d21",4.35 ± 2.03
same,relative tumor proliferation rate T/C,"[5]; SNU-16, 50 mg/kg orally once a day for 21 days",11.66%
same,Relative tumor volume RTV (mean ± SD),"[5]; SNU-16, 50 mg/kg orally once a day, d0",1.00 ± 0.00
same,Relative tumor volume RTV (mean ± SD),"[5]; SNU-16, 50 mg/kg orally once a day, d3",1.11 ± 0.42
same,Relative tumor volume RTV (mean ± SD),"[5]; SNU-16, 50 mg/kg orally once a day, d7",0.83 ± 0.49
same,Relative tumor volume RTV (mean ± SD),"[5]; SNU-16, 50 mg/kg orally once a day, d10",1.26 ± 0.71
same,Relative tumor volume RTV (mean ± SD),"[5]; SNU-16, 50 mg/kg orally once a day, d14",1.89 ± 1.57
same,Relative tumor volume RTV (mean ± SD),"[5]; SNU-16, 50 mg/kg orally once a day, d17",2.02 ± 1.63
same,Relative tumor volume RTV (mean ± SD),"[5]; SNU-16, 50 mg/kg orally once a day, d21",2.73 ± 2.82
same,body weight of tumor-bearing mice (in words),"[5]; SNU-16, HuFGFR267 50 mg/kg and 25 mg/kg groups",no significant change; also recorded: did not change significantly
same,animal deaths during the experiment,"[5]; SNU-16, each group (HuFGFR267 50 and 25 mg/kg, AZD4547 12.5 mg/kg)",no mice died
same,"Weight (g, mean ± SD)","[5]; 25 mg/kg orally once a day, d0",18.6 ± 1.6 g
same,"Weight (g, mean ± SD)","[5]; 25 mg/kg orally once a day, d3",19.4 ± 1.7 g
same,"Weight (g, mean ± SD)","[5]; 25 mg/kg orally once a day, d7",20.0 ± 1.8 g
same,"Weight (g, mean ± SD)","[5]; 25 mg/kg orally once a day, d10",20.9 ± 1.8 g
same,"Weight (g, mean ± SD)","[5]; 25 mg/kg orally once a day, d14",21.3 ± 1.7 g
same,"Weight (g, mean ± SD)","[5]; 25 mg/kg orally once a day, d17",21.2 ± 1.6 g
same,"Weight (g, mean ± SD)","[5]; 25 mg/kg orally once a day, d21",21.4 ± 1.8 g
same,"Weight (g, mean ± SD)","[5]; 50 mg/kg orally once a day, d0",18.9 ± 1.9 g
same,"Weight (g, mean ± SD)","[5]; 50 mg/kg orally once a day, d3",19.4 ± 2.2 g
same,"Weight (g, mean ± SD)","[5]; 50 mg/kg orally once a day, d7",19.9 ± 2.4 g
same,"Weight (g, mean ± SD)","[5]; 50 mg/kg orally once a day, d10",20.6 ± 2.3 g
same,"Weight (g, mean ± SD)","[5]; 50 mg/kg orally once a day, d14",20.5 ± 2.2 g
same,"Weight (g, mean ± SD)","[5]; 50 mg/kg orally once a day, d17",20.8 ± 2.3 g
same,"Weight (g, mean ± SD)","[5]; 50 mg/kg orally once a day, d21",20.7 ± 2.2 g
same,body weight of tumor-bearing mice (in words),"[6]; NCI-H1581, 50 mg/kg orally once a day for 14 days",no significant change
same,relative tumor proliferation rate T/C,"[6]; NCI-H1581, 50 mg/kg orally once a day for 14 days, 14th day",3.77%
same,Relative tumor volume RTV (mean ± SD),[6]; d0,1.00 ± 0.00
same,Relative tumor volume RTV (mean ± SD),[6]; d3,1.28 ± 0.40
same,Relative tumor volume RTV (mean ± SD),[6]; d7,1.33 ± 0.74
same,Relative tumor volume RTV (mean ± SD),[6]; d10,2.02 ± 1.10
same,Relative tumor volume RTV (mean ± SD),[6]; d14,2.16 ± 1.41
same,animal deaths during the experiment,"[6]; NCI-H1581, each group (HuFGFR267 50 mg/kg, AZD4547 12.5 mg/kg)",no mice died
same,"Weight (g, mean ± SD)",[6]; d0,18.1 ± 1.2 g
same,"Weight (g, mean ± SD)",[6]; d3,19.2 ± 1.0 g
same,"Weight (g, mean ± SD)",[6]; d7,19.7 ± 1.0 g
same,"Weight (g, mean ± SD)",[6]; d10,20.2 ± 1.2 g
same,"Weight (g, mean ± SD)",[6]; d14,20.0 ± 1.3 g

# — patent US10988456B2, “O-aminoheteroaryl alkynyl-containing compound, preparation method therefor, and use thereof” (SHANGHAI INSTITUTE OF MATERIA MEDICA, CHINESE ACADEMY OF …, priority 2017, dated 2021)
